Assay: gradient 5% acetonitrile 3 min, to 50% in 2 min, to 85% in 15 min, held 3 min, 100 µL/min
Details: column: Zorbax Extend-C18 2.1 x 50 mm; eluents: water / acetonitrile, 0.1% formic acid
How it was run: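 Pure standards were analyzed in mixtures of ~100 molecules using HPLC coupled to a quadrupole time-of-flight mass spectrometer, in both positive and negative ionization mode. Separation used a Zorbax Extend-C18 column (2.1 × 50 mm, 1.8 μm) at 100 μL/min, with water and acetonitrile each containing 0.1% formic acid. Dead and dwell volumes were 40 μL and 900 μL, and data were collected over 3 months. Retention time was read from computationally picked adduct peaks, each inspected manually.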

| Compound | RP-LC retention time |
| --- | --- |
| COCc1cc(=O)n(CC(=O)Nc2ccc(C)c(C)c2)c(N)n1 | 647 s |
| CN(C)CCNC(=O)Cn1c2ccccc2c2cnn(C)c(=O)c21 | 576 s |
| CCN(CC)c1nc(C(=O)N2CCC(N3CCCCC3)CC2)nc2nc(C)cc(C)c12 | 568 s |
| CCCN1C(=O)C(CC(=O)NCC(C)C)Sc2ncccc21 (stereo unspecified) | 741 s |
| O=C(Cn1ncccc1=O)N1CCN(c2ccc(-c3ccccn3)nn2)CC1 | 537 s |
| COc1ccc(S(=O)(=O)N2CCCC(C(N)=O)C2)cc1OC (stereo unspecified) | 640 s |
| Oc1ccc2c3c1O[C@H]1c4[nH]c5ccccc5c4C[C@@]4(O)C(C2)N(CC2CC2)CCC314 (stereo partly specified) | 692 s |
| CCCNC(=O)C1CCN(S(=O)(=O)c2cc(C(=O)N3CCC(C)CC3)n(C)c2)CC1 | 738 s |
| O=C(CC1CCCC1)N1CCC(N(Cc2cccnc2)C2CCOCC2)CC1 | 604 s |
| Cn1cc(-c2ccc(F)cc2)cc1C(=O)N1CCCC1 | 906 s |
| CCOC(=O)c1cnc(N2CCc3ccccc32)[nH]c1=O | 632 s |
| O=C(Cc1c[nH]c2ccccc12)N1CCC(NS(=O)(=O)c2ccc(Cl)cc2)CC1 | 829 s |
| CSc1cccc(NC(=O)N2CCCC(C)(C(=O)NCc3ccccc3)C2)c1 (stereo unspecified) | 951 s |
| CC(C)c1nnc2ccc(N3CCOCC3)nn12 | 645 s |
| O=S(=O)(c1cc(-c2nnc(C3CC3)o2)co1)N1CCN(c2ccccc2)CC1 | 960 s |
| Cn1cnc(S(=O)(=O)N2CCC(C(=O)N3CCCCCC3)CC2)c1 | 638 s |
| CCCCn1cc(S(=O)(=O)NC2CCCCC2)c2cccnc21 | 1010 s |
| O=C(NCCc1noc(C2CC2)n1)c1ccco1 | 664 s |
| CCOCC1CCC2(CCN(S(=O)(=O)c3ccc(C)c(F)c3)CC2)O1 (stereo unspecified) | 1090 s |

| Compound | RP-LC retention time |
| --- | --- |
| O=C(NC1CC1)C1CCN(c2nc3ccsc3c(=O)n2Cc2ccc(F)cc2)CC1 | 768 s |
| CCn1cc(CCNC(=O)NCC(C)C)c2cccnc21 | 636 s |
| O=C(Nc1ccccc1)c1cn2c(n1)CCCC2 | 577 s |
| O=C(Nc1nccnc1C(=O)NCCCN1CCCC1)c1ccccc1 | 609 s |
| Cc1cc2c(cc1S(=O)(=O)N1CCCC1C(=O)Nc1ccc(F)cc1F)OCC(=O)N2 (stereo unspecified) | 774 s |
| COc1ccc(Br)cc1CNC(=O)Cn1cnc2nc3c(cc2c1=O)CCCC3 | 777 s |
| CCC(C)NC(=O)CN1CCN(C(=O)Nc2ccc(Cl)cc2)CC1=O (stereo unspecified) | 686 s |
| CCCC(CCC)C(=O)N1CCCN(C2=NS(=O)(=O)C(c3ccc(C)cc3)=C2C)CC1 | 1010 s |
| Cn1nccc1C(=O)N1CCc2c(c(CO)nn2Cc2ccccc2)C1 | 630 s |
| Cc1cc2nn(CC(=O)Nc3cccc(F)c3)c(=O)n2c(Nc2ccc(F)cc2)n1 | 981 s |
| O=C(Cn1nc2c(cc1=O)CCCC2)Nc1ccc(Br)cc1 | 747 s |
| CN(Cc1ccccc1)C(=O)Cn1cccc1-c1nnc(-c2ccccc2)o1 | 940 s |
| CC(C)C(=O)Nc1ccc(-n2cnc(C(=O)N3CCN(Cc4ccccc4)CC3)c2)nc1 | 608 s |
| O=C(Cc1ccccc1)N1CCN(c2cc(-c3cccs3)[nH]n2)CC1 | 765 s |
| COCc1nc(C2CCN(C(=O)C3(c4ccccc4)CC3)C2)no1 (stereo unspecified) | 750 s |
| O=C(NCC1CCN(c2cc(-c3ccncc3)[nH]n2)CC1)c1ccc2cc[nH]c2c1 | 584 s |
| Cn1nc(CN(C(=O)c2ccccc2F)c2ccccc2)c2c1CCN(S(C)(=O)=O)C2 | 779 s |
| C[C@H]1CCCC(=O)CCC/C=C/c2c(O)cc(O)cc2C(=O)O1 | 888 s |
| O=C(NCC1(N2CCOCC2)CCOC1)Nc1ccccc1 (stereo unspecified) | 572 s |

| Compound | RP-LC retention time |
| --- | --- |
| O=C1CCSc2ccc(S(=O)(=O)N3CCC(C(=O)NCc4ccccc4)CC3)cc2N1 | 761 s |
| CCC1Oc2ccc(S(=O)(=O)N3CCC(C(=O)NC4CCCCCCC4)CC3)cc2NC1=O (stereo unspecified) | 977 s |
| Cn1c(CNC(=O)C2(Cc3ccccc3)CCCCC(=O)N2)nc2ccccc21 (stereo unspecified) | 630 s |
| C#CC1(N2CCCCC2)CCCCC1 | 638 s |
| CC(NC(=O)c1cccs1)C(=O)Nc1nc2ccccc2[nH]1 (stereo unspecified) | 612 s |
| Nc1ccccc1NC(=O)c1ccc(CNc2nccc(-c3cccnc3)n2)cc1 | 664 s |
| Cc1ccccc1CNC(=O)Cn1cccc1-c1nnc(-c2ccccc2)o1 | 950 s |
| CCc1nc(N)n(CC(=O)Nc2ccc(Br)cc2)c(=O)c1C | 666 s |
| CC(C)N1C(=O)c2cccnc2Sc2cc(C(=O)N3CCN(C)CC3)ccc21 | 582 s |
| O=C1CC2(CCN(C(=O)C3CC(=O)N(c4ccc(Cl)cc4)C3)CC2)Oc2ccccc21 (stereo unspecified) | 831 s |
| O=S(=O)(c1cccs1)N1CCCCC1c1nncn1CC1CC1 (stereo unspecified) | 752 s |
| Cc1[nH]nc(-c2cc(S(=O)(=O)NCCc3ccc(S(N)(=O)=O)cc3)c(C)s2)c1C | 699 s |
| O=C(CSCc1ccccc1)Nc1c(-c2ccc(F)cc2)nc2ccccn12 | 714 s |
| OC1(Cc2ccccc2)CCNCC1 | 612 s |
| CCc1nc(NCc2ccncc2)ncc1C(=O)O | 555 s |
| O=C(c1ccccc1OCC1CCCN(C2CCC2)C1)N1CCCC1 (stereo unspecified) | 615 s |
| Cc1c(Cl)cccc1NC(=O)CC1COc2ccccc2NC1=O (stereo unspecified) | 756 s |
| Cc1cc(-c2ccc(S(=O)(=O)N3CCC(C(=O)NC4CCCCCC4)CC3)o2)n[nH]1 | 852 s |

The next lines start with the values.

| RP-LC retention time | Compound |
| --- | --- |
| 806 s | O=C(NC1CCN(c2cc(-c3ccc(F)cc3)[nH]n2)C1)c1cccc(Br)c1 (stereo unspecified) |
| 1230 s | COc1ccc(-c2noc(-c3nc(-c4ccc(N(C)C)cc4)no3)n2)cc1OC |
| 629 s | CCOC(=O)N1CCN(c2cc(C(=O)O)c3cc(NC(=O)c4ccccc4OC)ccc3n2)CC1 |
| 774 s | Cc1cc(C)cc(NC(=O)Cn2c(-c3cnccn3)nc(C)c(C)c2=O)c1 |
| 696 s | CCn1c(=O)n(CC(=O)N2CCN(C)CC2)c(=O)c2cnc(-c3ccc(Cl)cc3)nc21 |
| 804 s | CCN1C(=O)c2cccnc2Sc2cc(NC(=O)c3ccc(Cl)cc3OC)ccc21 |
| 714 s | COCCn1c(-c2cccc(OC)c2)cnc1NC(=O)Nc1cccc(Cl)c1 |
| 852 s | O=C(COc1ccc(-c2cnc3ccccc3n2)cc1)Nc1ccccn1 |
| 1080 s | CCCCOc1ccc(C(=O)NC2(c3nc(C)no3)CCCCC2)cc1 |
| 876 s | Cc1oc(-c2ccc(C(=O)NCC3COCCO3)cc2)nc1CN1CCc2ccccc21 (stereo unspecified) |
| 922 s | CCc1nc2c(NC(=O)c3ccc(C)c(C)c3)cccn2n1 |
| 708 s | O=C(c1cn(-c2cc(-c3nc(C4CC4)no3)ccn2)cn1)N1CCOCC1 |
| 894 s | COC(=O)CN1CN(c2ccc(C)cc2)c2ncccc2S1(=O)=O |
| 844 s | COc1ccc(NC(=O)Cn2nc3nc(N4CCCC(C)C4)ccn3c2=O)cc1OC (stereo unspecified) |
| 1020 s | C=CCNC(=O)c1cnn(-c2cc(-c3nc(C(C)(C)C)no3)ccn2)c1C |
| 1310 s | CCCCCn1c(=O)c2ccccc2n(Cc2nc(-c3cccc(C)c3)no2)c1=O |
| 609 s | COC(=O)C1=C(N)Oc2cc(C)n(CCN(C)C)c(=O)c2C1c1cccc(OC)c1 (stereo unspecified) |
| 891 s | Cc1ccc(-c2cc(C(=O)N(C)C)n(C)c2)cc1 |

| RP-LC retention time | Compound |
| --- | --- |
| 944 s | CCOC(=O)c1nc(NCCCOC)c2c(-c3ccc(F)cc3)noc2n1 |
| 966 s | Cc1nnc(-c2cc3ccccc3n2CC(=O)Nc2ccc(C(F)(F)F)cc2)o1 |
| 1250 s | COc1ccc(-c2noc(-c3nnn4c3COC(c3ccc(C)cc3C)C4)n2)cc1 (stereo unspecified) |
| 1140 s | CCOC(=O)C1CCN(c2ncccc2-c2nnc(-c3ccc(C)cc3)o2)CC1 |
| 1060 s | O=C(Nc1cccc(Br)c1)N1CCCC1c1nc(-c2ccc(F)cc2F)no1 (stereo unspecified) |
| 592 s | CCCn1c(-c2cccc(C(=O)NCc3ccncc3)c2)nc2cccnc21 |
| 906 s | Cc1cccc(-n2c(=O)c3c(cc(C)n3C)n(CC(=O)Nc3c(C)cccc3C)c2=O)c1 |
| 891 s | COc1ccc(-c2noc(NCCc3ccc(OC)c(OC)c3)n2)cc1 |
| 936 s | COc1ccc(-c2nc(-c3cccc(-c4ccn[nH]4)c3)no2)c(OC)c1 |
| 1270 s | COc1ccc(N2CCN(S(=O)(=O)c3cc(-c4cc(C(F)(F)F)on4)sc3C)CC2)cc1 |
| 858 s | Cc1ccc(NS(=O)(=O)c2ccc([N+](=O)[O-])cc2)c(-c2nc3ccccc3[nH]c2=O)c1 |
| 836 s | Cc1ccc(-n2cc3c(N4CCCC(C(=O)NCc5ccc(C(C)C)cc5)C4)ncnc3n2)cc1 (stereo unspecified) |
| 921 s | COc1ccc(NC(=O)N2CC(C)Oc3ccc(C)cc32)cc1OC (stereo unspecified) |
| 737 s | CC(C)N1CC(c2nc(-c3ccccc3)no2)C2(CCCC2)C1 (stereo unspecified) |
| 971 s | O=C(C1CCN(S(=O)(=O)c2ccc(-c3noc(Cc4ccc(F)cc4)n3)cc2)CC1)N1CCCC1 |
| 803 s | Nc1ccc(-c2nc3ccccc3s2)cc1 |
| 1020 s | CCN(CC)S(=O)(=O)c1cccc(-c2nnc(-c3ccc(OC)cc3)o2)c1 |
